Measurements: paper PMC6499206, “Quantification of Volatile Metabolites Derived From Garlic (Allium sativum) in Human Urine” (Frontiers in Nutrition, 2019)

Test: Quantification of garlic-derived metabolites in human urine after ingestion of 3 g raw garlic (SIDA, SAFE, HRGC-MS / HRGC-GC-MS)
Format: in vivo
Conditions: for metabolite concentration in urine / metabolite concentration in urine, creatinine-normalized: 3 g raw garlic
In short: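 Quantification used stable isotope dilution (²H3-AMS, -AMSO, -AMSO2 standards), SAFE distillation at 50°C of DCM-treated urine, and GC-MS on a DB-FFAP column, with creatinine from the Jaffé reaction at 492 nm. Urine came from 18 volunteers avoiding sulfur-rich foods, sampled before and up to 24 h after eating 3 g raw garlic.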

SMILES: C=CCSC [AMS, allyl methyl sulfide]
- concentration in urine compared with human milk (3 g raw garlic in both studies, milk data ref 20): comparable excretion levels in both media
- metabolite concentration in urine (U I, 0.5 h post (0.55 h)): 0.9 µg/kg
- metabolite concentration in urine, creatinine-normalized (U I, 0.5 h post (0.55 h)): 0.1 µg/mmol creatinine
- metabolite concentration in urine (U I, 1 h post (1.03 h)): 0.7 µg/kg
- metabolite concentration in urine, creatinine-normalized (U I, 1 h post (1.03 h)): 0.8 µg/mmol creatinine
- metabolite concentration in urine (U I, 2 h post (2.05 h)): 1.7 µg/kg
- metabolite concentration in urine, creatinine-normalized (U I, 2 h post (2.05 h)): 0.8 µg/mmol creatinine
- metabolite concentration in urine (U I, 4 h post (4.05 h)): 1.6 µg/kg
- metabolite concentration in urine, creatinine-normalized (U I, 4 h post (4.05 h)): 0.2 µg/mmol creatinine
- metabolite concentration in urine (U I, 6 h post (6.05 h)): 1.5 µg/kg
- metabolite concentration in urine, creatinine-normalized (U I, 6 h post (6.05 h)): 0.2 µg/mmol creatinine
- metabolite concentration in urine (U I, 8 h post (8.05 h)): 0.7 µg/kg
- metabolite concentration in urine, creatinine-normalized (U I, 8 h post (8.05 h)): 0.1 µg/mmol creatinine
- metabolite concentration in urine (U I, 24 h post (25.55 h)): traces^1
- metabolite concentration in urine, creatinine-normalized (U I, 24 h post (25.55 h)): traces^1
- metabolite concentration in urine (U I, pre (-0.03 h)): < LOD^1
- metabolite concentration in urine, creatinine-normalized (U I, pre (-0.03 h)): < LOD^1
- metabolite concentration in urine (U II, 0.5 h post (0.50 h)): 0.5 µg/kg
- metabolite concentration in urine, creatinine-normalized (U II, 0.5 h post (0.50 h)): 0.1 µg/mmol creatinine
- metabolite concentration in urine (U II, 1 h post (1.00 h)): 0.9 µg/kg
- metabolite concentration in urine, creatinine-normalized (U II, 1 h post (1.00 h)): 0.3 µg/mmol creatinine
- metabolite concentration in urine (U II, 2 h post (2.00 h)): 0.5 µg/kg
- metabolite concentration in urine, creatinine-normalized (U II, 2 h post (2.00 h)): 0.4 µg/mmol creatinine
- metabolite concentration in urine (U II, 4 h post (4.00 h)): 0.7 µg/kg
- metabolite concentration in urine, creatinine-normalized (U II, 4 h post (4.00 h)): 0.1 µg/mmol creatinine
- metabolite concentration in urine (U II, 6 h post (6.00 h)): 0.4 µg/kg
- metabolite concentration in urine, creatinine-normalized (U II, 6 h post (6.00 h)): 0.04 µg/mmol creatinine
- metabolite concentration in urine (U II, 8 h post (8.00 h)): 0.2 µg/kg
- metabolite concentration in urine, creatinine-normalized (U II, 8 h post (8.00 h)): 0.02 µg/mmol creatinine
- metabolite concentration in urine (U II, 24 h post (24.12 h)): traces^1
- metabolite concentration in urine, creatinine-normalized (U II, 24 h post (24.12 h)): traces^1
- metabolite concentration in urine (U II, pre (-0.13 h)): < LOD^1
- metabolite concentration in urine, creatinine-normalized (U II, pre (-0.13 h)): < LOD^1
- metabolite concentration in urine (U III, 0.5 h post (0.53 h)): 0.6 µg/kg
- metabolite concentration in urine, creatinine-normalized (U III, 0.5 h post (0.53 h)): 0.3 µg/mmol creatinine
- metabolite concentration in urine (U III, 1 h post (1.07 h)): 0.6 µg/kg
- metabolite concentration in urine, creatinine-normalized (U III, 1 h post (1.07 h)): 0.8 µg/mmol creatinine
- metabolite concentration in urine (U III, 2 h post (2.18 h)): 1.2 µg/kg
- metabolite concentration in urine, creatinine-normalized (U III, 2 h post (2.18 h)): 0.7 µg/mmol creatinine
- metabolite concentration in urine (U III, 4 h post (4.35 h)): 0.8 µg/kg
- metabolite concentration in urine, creatinine-normalized (U III, 4 h post (4.35 h)): 0.3 µg/mmol creatinine
- metabolite concentration in urine (U III, 6 h post (6.35 h)): 0.6 µg/kg
- metabolite concentration in urine, creatinine-normalized (U III, 6 h post (6.35 h)): 0.1 µg/mmol creatinine
- metabolite concentration in urine (U III, 8 h post (8.43 h)): 0.4 µg/kg
- metabolite concentration in urine, creatinine-normalized (U III, 8 h post (8.43 h)): 0.1 µg/mmol creatinine
- metabolite concentration in urine (U III, 24 h post (23.90 h)): traces^1
- metabolite concentration in urine, creatinine-normalized (U III, 24 h post (23.90 h)): traces^1
- metabolite concentration in urine (U III, pre (-0.03 h)): traces^1
- metabolite concentration in urine, creatinine-normalized (U III, pre (-0.03 h)): traces^1
- metabolite concentration in urine (U IV, 0.5 h post (0.55 h)): 0.7 µg/kg
- metabolite concentration in urine, creatinine-normalized (U IV, 0.5 h post (0.55 h)): 0.1 µg/mmol creatinine
- metabolite concentration in urine (U IV, 1 h post (1.05 h)): 0.7 µg/kg
- metabolite concentration in urine, creatinine-normalized (U IV, 1 h post (1.05 h)): 0.5 µg/mmol creatinine
- metabolite concentration in urine (U IV, 2 h post (2.12 h)): 0.7 µg/kg
- metabolite concentration in urine, creatinine-normalized (U IV, 2 h post (2.12 h)): 0.4 µg/mmol creatinine
- metabolite concentration in urine (U IV, 4 h post (4.05 h)): 0.8 µg/kg
- metabolite concentration in urine, creatinine-normalized (U IV, 4 h post (4.05 h)): 0.2 µg/mmol creatinine
- metabolite concentration in urine (U IV, 6 h post (6.08 h)): 0.6 µg/kg
- metabolite concentration in urine, creatinine-normalized (U IV, 6 h post (6.08 h)): 0.04 µg/mmol creatinine
- metabolite concentration in urine (U IV, 8 h post (8.05 h)): 0.3 µg/kg
- metabolite concentration in urine, creatinine-normalized (U IV, 8 h post (8.05 h)): 0.1 µg/mmol creatinine
- metabolite concentration in urine (U IV, 24 h post (24.03 h)): 0.5 µg/kg
- metabolite concentration in urine, creatinine-normalized (U IV, 24 h post (24.03 h)): 0.1 µg/mmol creatinine
- metabolite concentration in urine (U IV, pre (-0.05 h)): < LOD^1
- metabolite concentration in urine, creatinine-normalized (U IV, pre (-0.05 h)): < LOD^1
- metabolite concentration in urine (U IX, 0.5 h post (0.67 h)): 1.0 µg/kg
- metabolite concentration in urine, creatinine-normalized (U IX, 0.5 h post (0.67 h)): 0.9 µg/mmol creatinine
- metabolite concentration in urine (U IX, 1 h post (1.17 h)): 1.5 µg/kg
- metabolite concentration in urine, creatinine-normalized (U IX, 1 h post (1.17 h)): 1.4 µg/mmol creatinine
- metabolite concentration in urine (U IX, 2 h post (1.83 h)): 1.4 µg/kg
- metabolite concentration in urine, creatinine-normalized (U IX, 2 h post (1.83 h)): 1.2 µg/mmol creatinine
- metabolite concentration in urine (U IX, 4 h post (4.17 h)): 2.5 µg/kg
- metabolite concentration in urine, creatinine-normalized (U IX, 4 h post (4.17 h)): 0.5 µg/mmol creatinine
- metabolite concentration in urine (U IX, 6 h post (6.08 h)): 1.7 µg/kg
- metabolite concentration in urine, creatinine-normalized (U IX, 6 h post (6.08 h)): 0.5 µg/mmol creatinine
- metabolite concentration in urine (U IX, 8 h post (8.08 h)): 0.8 µg/kg
- metabolite concentration in urine, creatinine-normalized (U IX, 8 h post (8.08 h)): 0.1 µg/mmol creatinine
- metabolite concentration in urine (U IX, 24 h post (24.00 h)): traces^1
- metabolite concentration in urine, creatinine-normalized (U IX, 24 h post (24.00 h)): traces^1
- metabolite concentration in urine (U IX, pre (-0.08 h)): < LOD^1
- metabolite concentration in urine, creatinine-normalized (U IX, pre (-0.08 h)): < LOD^1
- metabolite concentration in urine (U V, 0.5 h post (0.50 h)): 0.5 µg/kg
- metabolite concentration in urine, creatinine-normalized (U V, 0.5 h post (0.50 h)): 0.7 µg/mmol creatinine
- metabolite concentration in urine (U V, 1 h post (1.00 h)): 0.7 µg/kg
- metabolite concentration in urine, creatinine-normalized (U V, 1 h post (1.00 h)): 0.8 µg/mmol creatinine
- metabolite concentration in urine (U V, 2 h post (2.00 h)): 0.7 µg/kg
- metabolite concentration in urine, creatinine-normalized (U V, 2 h post (2.00 h)): 0.8 µg/mmol creatinine
- metabolite concentration in urine (U V, 4 h post (4.00 h)): 0.9 µg/kg
- metabolite concentration in urine, creatinine-normalized (U V, 4 h post (4.00 h)): 0.3 µg/mmol creatinine
- metabolite concentration in urine (U V, 6 h post (6.00 h)): 0.7 µg/kg
- metabolite concentration in urine, creatinine-normalized (U V, 6 h post (6.00 h)): 0.1 µg/mmol creatinine
- metabolite concentration in urine (U V, 8 h post (8.00 h)): 0.3 µg/kg
- metabolite concentration in urine, creatinine-normalized (U V, 8 h post (8.00 h)): 0.2 µg/mmol creatinine
- metabolite concentration in urine (U V, 24 h post (24.00 h)): traces^1
- metabolite concentration in urine, creatinine-normalized (U V, 24 h post (24.00 h)): traces^1
- metabolite concentration in urine (U V, pre (-0.05 h)): < LOD^1
- metabolite concentration in urine, creatinine-normalized (U V, pre (-0.05 h)): < LOD^1
- metabolite concentration in urine (U VI, 0.5 h post (0.50 h)): 1.1 µg/kg
- metabolite concentration in urine, creatinine-normalized (U VI, 0.5 h post (0.50 h)): 0.5 µg/mmol creatinine
- metabolite concentration in urine (U VI, 1 h post (1.00 h)): 0.7 µg/kg
- metabolite concentration in urine, creatinine-normalized (U VI, 1 h post (1.00 h)): 0.6 µg/mmol creatinine
- metabolite concentration in urine (U VI, 2 h post (2.00 h)): 1.0 µg/kg
- metabolite concentration in urine, creatinine-normalized (U VI, 2 h post (2.00 h)): 0.9 µg/mmol creatinine
- metabolite concentration in urine (U VI, 4 h post (4.00 h)): 1.2 µg/kg
- metabolite concentration in urine, creatinine-normalized (U VI, 4 h post (4.00 h)): 0.3 µg/mmol creatinine
- metabolite concentration in urine (U VI, 6 h post (6.00 h)): 0.9 µg/kg
- metabolite concentration in urine, creatinine-normalized (U VI, 6 h post (6.00 h)): 0.2 µg/mmol creatinine
- metabolite concentration in urine (U VI, 8 h post (8.00 h)): 0.5 µg/kg
- metabolite concentration in urine, creatinine-normalized (U VI, 8 h post (8.00 h)): 0.1 µg/mmol creatinine
- metabolite concentration in urine (U VI, 24 h post (24.17 h)): traces^1
- metabolite concentration in urine, creatinine-normalized (U VI, 24 h post (24.17 h)): traces^1
- metabolite concentration in urine (U VI, pre (-0.05 h)): < LOD^1
- metabolite concentration in urine, creatinine-normalized (U VI, pre (-0.05 h)): < LOD^1
- metabolite concentration in urine (U VII, 0.5 h post (0.50 h)): 0.6 µg/kg
- metabolite concentration in urine, creatinine-normalized (U VII, 0.5 h post (0.50 h)): 0.5 µg/mmol creatinine
- metabolite concentration in urine (U VII, 1 h post (1.08 h)): 1.3 µg/kg
